Consider 22 compounds from BindingDB's records for doi:10.3109/14756366.2010.616860 (Slovak University of Technology, 2012).

Where “and” joins values, the source holds several entries; their conditions need not be identical. Equal entries are not always repeated.

What all share (assay): Enzyme Assay
Conditions in all cases: pH 8

Experiment [1] concerns the target Chymotrypsin-like elastase family member 1 (Pig, UniProt P00772). The method, then: (§1) Data scanning time was set to the 1st and 61st minute after the reaction start. Rutin, esculin, phloridzin and their esters were initially solubilized at a concentration of 10 mM in dimethyl sulphoxide (DMSO) and subsequently incorporated in the reaction mixture to final concentrations in the range of 1-50 μM. Samples were run in triplicate in 96-well plates by MRX microplate reader. Each experiment was performed in triplicate.

The target of experiment [2] is Prothrombin (Bos taurus, UniProt P00735). The protocol:
as §1

Experiment [3] addresses T1, Serine protease 1 (Bos taurus, UniProt P00760).
T1 sequence (P00760 whole entry): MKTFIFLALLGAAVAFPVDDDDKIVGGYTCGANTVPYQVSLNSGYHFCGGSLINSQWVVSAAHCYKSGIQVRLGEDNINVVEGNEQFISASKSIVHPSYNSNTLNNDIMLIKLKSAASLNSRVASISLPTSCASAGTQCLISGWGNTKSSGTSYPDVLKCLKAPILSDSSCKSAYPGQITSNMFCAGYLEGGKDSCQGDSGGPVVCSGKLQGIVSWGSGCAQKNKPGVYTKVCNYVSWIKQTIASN
The method, then: as §1

Experiment [4] has as its target Urokinase-type plasminogen activator (Homo sapiens, UniProt P00749). The protocol:
as §1

Sequence of Chymotrypsin-like elastase family member 1 (P00772 whole entry): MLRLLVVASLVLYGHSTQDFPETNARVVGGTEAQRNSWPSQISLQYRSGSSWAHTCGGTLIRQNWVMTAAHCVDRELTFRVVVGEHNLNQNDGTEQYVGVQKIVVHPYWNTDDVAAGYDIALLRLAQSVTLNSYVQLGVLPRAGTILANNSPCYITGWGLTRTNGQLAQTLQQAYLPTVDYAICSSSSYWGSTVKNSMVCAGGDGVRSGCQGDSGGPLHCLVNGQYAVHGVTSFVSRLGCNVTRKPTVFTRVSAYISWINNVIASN

For the compound `CCCCCCCCCCCC(=O)OC1C(C)OC(OCC2OC(Oc3c(-c4ccc(O)c(O)c4)oc4cc(O)cc(O)c4c3=O)C(O)C(O)C2O)C(O)C1O` (stereo not given) [Rutin laurate], the half-inhibitory concentration (IC50) (as a rule, the concentration that gives 50% inhibition) in experiment [1] is more than 500 µM; in experiment [2], 14 µM; in experiment [3], 90 µM; in experiment [4], 50 µM.

`CC1OC(OCC2OC(Oc3c(-c4ccc(O)c(O)c4)oc4cc(O)cc(O)c4c3=O)C(O)C(O)C2O)C(O)C(O)C1O` (stereo not given) [Rutin]: the IC50 in experiment [1] was 100 µM; in experiment [2], 25 µM; in experiment [3], 40 µM; in experiment [4], 6 µM.

For the compound `N=C(N)Nc1ccc(C(=O)O)cc1` [4-Guanidinobenzoate], the IC50 in experiment [1] came out at 500 µM; in experiment [2] it was 400 µM; in experiment [3], 450 µM; in experiment [4], 20 µM.

Turning to `O=C(CCc1ccc(O)cc1)c1c(O)cc(O)cc1OC1OC(CO)C(O)C(O)C1O` (stereo not given) [Phloridzin], the IC50 came out at 100 µM in experiment [1], 320 µM in experiment [2], 90 µM in experiment [3] and 80 µM in experiment [4].

Turning to `CCCCCCCCCCCC(=O)OCC1OC(Oc2cc(O)cc(O)c2C(=O)CCc2ccc(O)cc2)C(O)C(O)C1O` (stereo not given) [Phloridzin laurate], the IC50 in experiment [1] was more than 500 µM; in experiment [2] it was 70 µM; in experiment [3], 55 µM; in experiment [4] it was 9 µM.

In the case of `CCCCCCCCCCCCCCCCCC(=O)OCC1OC(Oc2cc(O)cc(O)c2C(=O)CCc2ccc(O)cc2)C(O)C(O)C1O` (stereo not given) [Phloridzin stearate], the IC50 in experiment [1] is more than 500 µM; in experiment [2], 65 µM; in experiment [3], 215 µM; in experiment [4], 13 µM.

On to `CCCC(=O)OC1C(C)OC(OCC2OC(Oc3c(-c4ccc(O)c(O)c4)oc4cc(O)cc(O)c4c3=O)C(O)C(O)C2O)C(O)C1O` (stereo not given) [Rutin butyrate], for which the IC50 was more than 500 µM in experiment [1], 22 µM in experiment [2], more than 500 µM in experiment [3] and 8 µM in experiment [4].

Turning to `CCCCCCCCCCCCCCCC(=O)OC1C(C)OC(OCC2OC(Oc3c(-c4ccc(O)c(O)c4)oc4cc(O)cc(O)c4c3=O)C(O)C(O)C2O)C(O)C1O` (stereo not given) [Rutin palmitate], the IC50 is more than 500 µM in experiment [1], 3 µM in experiment [2], 40 µM in experiment [3] and 15 µM in experiment [4].

For the compound `CCCCCCCCCCCCCC(=O)OCC1OC(Oc2cc(O)cc(O)c2C(=O)CCc2ccc(O)cc2)C(O)C(O)C1O` (stereo not given) [Phloridzin myristate], the IC50 in experiment [1] was more than 500 µM; in experiment [2], 75 µM; in experiment [3], 65 µM; in experiment [4], 33 µM.

As to `CCCCCCCCCCCCCCCCCC(=O)OCC1OC(Oc2cc3ccc(=O)oc3cc2O)C(O)C(O)C1O` (stereo not given) [Esculin stearate], the IC50 came out at 60 µM in experiment [1], 52 µM in experiment [2], 50 µM in experiment [3] and 89 µM in experiment [4].

Turning to `CCCCCCCCCCCC(=O)OCC1OC(Oc2cc3ccc(=O)oc3cc2O)C(O)C(O)C1O` (stereo not given) [Esculin laurate], the IC50 was determined as 20 µM in experiment [1], 60 µM in experiment [2], 350 µM in experiment [3] and 100 µM in experiment [4].

Regarding `CCCCCCCCCCCCCCCC(=O)OCC1OC(Oc2cc(O)cc(O)c2C(=O)CCc2ccc(O)cc2)C(O)C(O)C1O` (stereo not given) [Phloridzin palmitate], the IC50 in experiment [1] is more than 500 µM; in experiment [2], 75 µM; in experiment [3], 60 µM; in experiment [4], 18 µM.

On to `CCCCCCCCCCCCCC(=O)OC1C(C)OC(OCC2OC(Oc3c(-c4ccc(O)c(O)c4)oc4cc(O)cc(O)c4c3=O)C(O)C(O)C2O)C(O)C1O` (stereo not given) [Rutin myristate], for which the IC50 in experiment [1] was more than 500 µM; in experiment [2], 10 µM; in experiment [3] it was 130 µM; in experiment [4], 15 µM.

For the compound `CCCCCCCCCCCCCC(=O)OCC1OC(Oc2cc3ccc(=O)oc3cc2O)C(O)C(O)C1O` (stereo not given) [Esculin myristate], the IC50 in experiment [1] came out at 25 µM; in experiment [2], 54 µM; in experiment [3], 120 µM; in experiment [4], 100 µM.

Take `O=c1c(O)c(-c2ccc(O)c(O)c2)oc2cc(O)cc(O)c12` [2-(3,4-dihydroxyphenyl)-3,5,7-trihydroxy-chromone;hydrate]: 20 µM corresponded to half-maximal inhibition in experiment [4] (IC50).

In the case of `CCCCCCCC/C=C\CCCCCCCC(=O)OC1C(C)OC(OCC2OC(Oc3c(-c4ccc(O)c(O)c4)oc4cc(O)cc(O)c4c3=O)C(O)C(O)C2O)C(O)C1O` (stereo not given) [Rutin oleate], the IC50 in experiment [1] was more than 500 µM; in experiment [2], 9 µM; in experiment [3], 60 µM; in experiment [4] it was 25 µM.

Regarding `CCCCCCCCCCCCCCCCCC(=O)OC1C(C)OC(OCC2OC(Oc3c(-c4ccc(O)c(O)c4)oc4cc(O)cc(O)c4c3=O)C(O)C(O)C2O)C(O)C1O` (stereo not given) [Rutin stearate], the IC50 in experiment [1] is more than 500 µM; in experiment [2], 8 µM; in experiment [3], 40 µM; in experiment [4], 15 µM.

As to `CCCCCCCCCCCCCCCC(=O)OCC1OC(Oc2cc3ccc(=O)oc3cc2O)C(O)C(O)C1O` (stereo not given) [Esculin palmitate], the IC50 is 30 µM in experiment [1], 54 µM in experiment [2], 210 µM in experiment [3] and 100 µM in experiment [4].

On to `CC/C=C\C/C=C\C/C=C\CCCCCCCC(=O)OC1C(C)OC(OCC2OC(Oc3c(-c4ccc(O)c(O)c4)oc4cc(O)cc(O)c4c3=O)C(O)C(O)C2O)C(O)C1O` (stereo not given) [Rutin linolenate], for which the IC50 in experiment [1] was more than 500 µM; in experiment [2] it was 7 µM; in experiment [3] it was 50 µM; in experiment [4] it was 20 µM.

Consider `CCCCCCCC(=O)OC1C(C)OC(OCC2OC(Oc3c(-c4ccc(O)c(O)c4)oc4cc(O)cc(O)c4c3=O)C(O)C(O)C2O)C(O)C1O` (stereo not given) [Rutin caprylate], for which the IC50 in experiment [1] was more than 500 µM; in experiment [2], 25 µM; in experiment [3], more than 500 µM; in experiment [4], 32 µM.

On to `O=c1ccc2cc(OC3OC(CO)C(O)C(O)C3O)c(O)cc2o1` (stereo not given) [Esculin], for which the IC50 in experiment [1] came to 100 µM; in experiment [2], 250 µM; in experiment [3], 150 µM; in experiment [4] it was 25 µM.

Regarding `CCCCCC(=O)OC1C(C)OC(OCC2OC(Oc3c(-c4ccc(O)c(O)c4)oc4cc(O)cc(O)c4c3=O)C(O)C(O)C2O)C(O)C1O` (stereo not given) [Rutin caproate], the concentration for half-maximal inhibition (IC50) in experiment [1] was more than 500 µM; in experiment [2] it was 32 µM; in experiment [3], more than 500 µM; in experiment [4], 14 µM and 20 µM.
